Calls of active or inactive are those of the source. The calls are words filed in the database; no cut-off is given here.

From ChEMBL document CHEMBL3045203, “Synthesis and biological evaluation of some N4-substituted 5-nitroisatin-3-thiosemicarbazones” (Med Chem Res, 2012) come the findings set out here.

Series [1] is filed under the species Homo sapiens. The series is described as follows: Inhibition of […] urease using urea as substrate at 100 uM preincubated for 5 min before substrate addition measured after 10 min relative to control.
The next series deals with Candida albicans. The experiment in a line: Antifungal activity against Candida albicans at 200 ug/ml after 7 days. The series is classed as functional. The conditions noted are these: 168 h.
The species named for series [2] is Homo sapiens. The series is described as follows: Inhibition of […] urease using urea as substrate at 10 uM preincubated for 5 min before substrate addition measured after 10 min relative to control.
Series [3] deals with Lemna aequinoctialis. The series is described as follows: Phytotoxicity against Lemna aequinoctialis assessed as growth inhibition at 50 ug/ml. The format is functional. The conditions noted are these: read-out: GI.
The subject of the next series is Aspergillus flavus. The experiment in a line: Antifungal activity against Aspergillus flavus at 200 ug/ml after 7 days. The format is functional. As to conditions: 168 h.
For series [4], the species on record is Homo sapiens. The series is described as follows: Inhibition of […] urease using urea as substrate at 0.01 uM preincubated for 5 min before substrate addition measured after 10 min relative to control.
The species named for series [5] is Homo sapiens. The experiment in a line: Inhibition of […] urease using urea as substrate at 0.1 uM preincubated for 5 min before substrate addition measured after 10 min relative to control.
The next series relates to Nakaseomyces glabratus. The series is described as follows: Antifungal activity against Candida glabrata at 200 ug/ml after 7 days. The series is classed as functional. The conditions noted are these: 168 h.
Another series has as its system Microsporum canis. The experiment in a line: Antifungal activity against Arthroderma otae at 200 ug/ml after 7 days. The format is functional. The conditions noted are these: 168 h.
In series [6] the test system is Lemna aequinoctialis. The series is described as follows: Phytotoxicity against Lemna aequinoctialis assessed as growth inhibition at 5 ug/ml. The format is functional. As to conditions: read-out: GI.
Series [7] deals with Lemna aequinoctialis. The experiment in a line: Phytotoxicity against Lemna aequinoctialis assessed as growth inhibition at 500 ug/ml. As to conditions: read-out: GI. The series is classed as functional.
The next series relates to Fusarium solani. The experiment in a line: Antifungal activity against Fusarium solani at 200 ug/ml after 7 days. The conditions noted are these: 168 h. The series is classed as functional.
The species entered for series [8] is Homo sapiens. The experiment in a line: Inhibition of […] urease using urea as substrate at 1 uM preincubated for 5 min before substrate addition measured after 10 min relative to control.
A short description of series [9]: Toxicity inArtemia salina (brine shrimp) larvae assessed as mortality after 24 hr. The format is organism-based. As to conditions: artemia salina, in vivo; read-out: LD50.
Series [10] has as its system Lemna aequinoctialis. The experiment in a line: Phytotoxicity against Lemna aequinoctialis assessed as growth inhibition at 0.015 ug/ml. The format is functional. The conditions noted are these: read-out: GI.

On to `O=C1Nc2ccc([N+](=O)[O-])cc2/C1=N/NC(=S)Nc1ccccc1`, for which the inhibition – broadly, the drop in the measured response relative to a control, in per cent – is 6% in the series filed under Homo sapiens [1], 8.8% in the series listed under Homo sapiens [4], 5.8% in the series filed under Homo sapiens [5] and 0.65% in the series listed under Homo sapiens [8]. Besides, the inhibition at 200 µg/mL in the series with Candida albicans was 0%; with Aspergillus flavus, 20%; in the series on Nakaseomyces glabratus it was 0%; with Microsporum canis it was 0%; in the series with Fusarium solani, 0%. Also, in the series filed under Homo sapiens [2], the inhibition result was “inactive”. For the same molecule, the inhibition of growth at 50 µg/mL with Lemna aequinoctialis [3] amounted to 10%. Also, the inhibition of growth at 5 µg/mL in the series with Lemna aequinoctialis [6] turned out to be 5%. In addition, the inhibition of growth at 500 µg/mL in the series on Lemna aequinoctialis [7] was found to be 20%. In addition, in series [9], the LC50 at 24 h is > 1470 µM.
Take `C[n+]1ccc(-c2cc[n+](C)cc2)cc1` [PARAQUAT]: in the series on Lemna aequinoctialis [10], the inhibition of growth at 0.015 µg/mL came to 100%.
